{"source": "patent US12338205B2", "about": "“Crystalline form of 3-((L-valyl) amino)-1-propanesulfonic acid” (RISEN (SUZHOU) PHARMA TECH CO., LTD., priority 2018, dated 2025)", "key": {"[1]": {"test": "Thermogravimetric analysis (TGA)", "assay_type": "physicochemical", "conditions": "for slow weight loss (TGA): before about 120° C., showing that it is an anhydrate; for decomposition temperature (TGA): nitrogen, ramp 10° C./min", "protocol": "The thermogravimetric analyzer (TGA) involved herein is Q500TGA from TA Instruments; detection conditions: a platinum crucible, a protective atmosphere of nitrogen, a gas flow rate of 40 mL/min; and the following detection method: a Hi-Res sensitivity of 3.0, ramp 10.00° C./min, res 5.0 to 120.00° C., and ramp 10.00° C./min to 350° C."}, "[2]": {"test": "Pharmacokinetics comparative experiment, plasma concentration by LC/MS2 after capsule intragastric administration", "assay_type": "in vivo", "conditions": "SD rats, 133 mg/kg, solid capsule intragastric administration", "excerpt": "By means of a pharmacokinetics comparative experiment, the […] feature of the crystalline form I provided herein after administration is compared with that of the amorphous solid of Example 1 as a reference sample.\nSD rats (all male, weight of 260-280 g) were randomizely grouped, each group of 3 animals. The medication group received the crystalline form compound (No. S08S02S15a) of the Example 2, the crystalline form compound (No. S08S04S22a) of the Example 7, and the crystalline form compound (No. S08S19S24a) of the Example 8, respectively, and the control group received the reference sample (the amorphous solid of Example 1). The animals were fasted for 12 hours before administration, and the dosage of administration was 133 mg/kg. The corresponding medications were administered by intragastric administration using a solid capsule administration system (Size 9el Rat Box+Foam+Funnel+Syringe). Rat plasma samples were collected before administration, and 0.08, 0.16, 0.33, 0.5, 1, 1.5, 2, 3, 4, 6, and 8 h after administration, respectively. After heparin tube anticoagulation, centrifugation was performed at 5000 rpm for 10 min at a temperature of 4° C. A plasma supernatant sample was taken and subjected to protein precipitation using methanol, and then, the medication concentration in the plasma was monitored by LC/MS2."}, "[3]": {"conditions": "compared with amorphous solid of Example 1"}}, "data": [{"smiles": "CC(C)[C@H](N)C(=O)NCCCS(=O)(=O)O", "note": "[Crystalline Form I, 3-((L-valyl)amino)-1-propanesulfonic acid]", "values": [{"measurement": "slow weight loss (TGA)", "setting": "[1]; listed as Example 2", "value": "about 0.5 wt %"}, {"measurement": "slow weight loss (TGA)", "setting": "[1]; listed as Example 6", "value": "about 0.5 wt %"}, {"measurement": "slow weight loss (TGA)", "setting": "[1]; listed as Example 7", "value": "about 1.4 wt %"}, {"measurement": "slow weight loss (TGA)", "setting": "[1]; listed as Example 8", "value": "about 0.2 wt %"}, {"measurement": "slow weight loss (TGA)", "setting": "[1]; listed as Example 9", "value": "about 1.2 wt %"}, {"measurement": "slow weight loss (TGA)", "setting": "[1]; listed as Example 14", "value": "about 0.5 wt %"}, {"measurement": "slow weight loss (TGA)", "setting": "[1]; listed as Example 24", "value": "about 0.6 wt %"}, {"measurement": "decomposition temperature (TGA)", "setting": "[1]; listed as Example 2", "value": "about 307 °C"}, {"measurement": "decomposition temperature (TGA)", "setting": "[1]; listed as Example 6", "value": "about 300 °C"}, {"measurement": "decomposition temperature (TGA)", "setting": "[1]; listed as Example 7", "value": "about 302 °C"}, {"measurement": "decomposition temperature (TGA)", "setting": "[1]; listed as Example 8", "value": "about 314 °C"}, {"measurement": "decomposition temperature (TGA)", "setting": "[1]; listed as Example 9", "value": "about 303 °C"}, {"measurement": "decomposition temperature (TGA)", "setting": "[1]; listed as Example 14", "value": "about 310 °C"}, {"measurement": "decomposition temperature (TGA)", "setting": "[1]; listed as Example 24", "value": "about 317 °C"}, {"measurement": "exposure AUC", "setting": "[2]; [3]", "value": "effectively improve"}, {"measurement": "half-life period T1/2", "setting": "[2]; [3]", "value": "effectively improve"}, {"measurement": "maximum blood concentration Cmax", "setting": "[2]; [3]", "value": "effectively improve"}, {"measurement": "medication dissolution", "setting": "[2]; compared with reference sample (amorphous solid of Example 1), FIGS. 21-24", "value": "improving"}]}]}
